Experimental data from patent US8658648B2, “Modified chloroquines with single ring moiety or fused ring moiety” (DesignMedix, Inc., priority 2008, dated 2014).
Read-outs that look alike come from different tables or passages of the source.

How the values were obtained:
[1] = system: D6 (CQ^S) P. falciparum strain; test: In vitro fluorescence (Sybr Green I) assay for IC50 against D6 strain; assay type: cell-based; settings: Plasmodium falciparum, read-out: IC50-D6
Excerpt: (§1) This method employs fluorescent detection of the level of parasitemia in cultured red blood cells and can be automated for high-throughput screening of antimalarial RCQs. This exemplary method allows the inhibitory agent (such as a MCQ) to be in contact with the parasite for an entire developmental cycle without purine starvation, which is in contrast to the traditional ^3H-hypoxanthine method (Desjardins et al. 1979. Antimicrob. Agents Chemother. 16(6):710-718, which is incorporated herein by reference in its entirety). Briefly, to perform the Smilkstein et al. method, an initial parasitemia of approximately 0.2% is attained by adding uninfected red blood cells (RBCs) to a stock culture of Plasmodium-infected RBCs. […] After a period of incubation (such as about 72 hours), a sufficient amount (e.g., 100 μL) of a fluorescent DNA binding dye-detergent mixture (e.g., Sybr Green I dye-detergent mixture) to lyse cells and bind to DNA is added to the reactions. Because uninfected RBCs have no DNA, only parasite DNA (in infected RBCs) is available for binding to the fluorescent dye (e.g., Sybr Green I). Samples are then incubated in the dark for a period of time (e.g., one hour), followed by measurement of levels of fluorescence. For Sybr Green 1, excitation and emission wavelength are 485 and 530 nm, respectively. Fluorescence readings, which represent the amount of parasite DNA in the sample, can be plotted against the Log [drug] and fit to a curve by nonlinear regression to obtain the IC50 value for the tested compound.
(§2) An in vitro fluorescence assay for determining IC50 of antimalarial drugs was performed as previously described by Smilkstein et al. (2004. Antimicrob. Agents Chemother. 48(5):1803-1806). This procedure can be automated for high-throughput screening of the antimalarial activities of RCQs described herein. This method also allows the tested agent (e.g., a MCQ) to be in contact with the parasite for an entire developmental cycle without purine starvation (which occurs with the commonly used ^3H-hypoxanthine method; see, e.g., Desjardins et al. 1979. Antimicrob. Agents Chemother. 16, (6):710-7188).
(§3) Briefly, an initial parasitemia of approximately 0.2% was attained by addition of uninfected red blood cells to a stock culture of cells infected with Dd2 (CQ^R), 7G8 (CQ^R), or D6 (CQ^S) P. falciparum strains. A 10 mM solution of a test compound (in DMSO) was prepared. The test compound (at a final concentration from 10^−11 to 10^−4 M) and infected red blood cells (at a final concentration of 2% (v/v)) were mixed in 100 μL samples in individual wells of a 96-well plate. Each sample was prepared in triplicate. A triplicate set of reactions containing CQ (instead of the test compound) was included as a control. After a 72 hour incubation period, Sybr Green I dye-detergent mixture (100 μL) was added to each reaction. The samples were further incubated for an hour in the dark, and then placed in a 96-well fluorescence plate reader (Gemini-EM, […]) and analyzed with excitation and emission wavelength bands at 485 and 530 nm, respectively. Fluorescence readings were plotted against the Log [drug], and curve fitting performed by nonlinear regression to find the IC50 value.

[2] = system: Dd2 (CQ^R) P. falciparum strain; test: In vitro fluorescence (Sybr Green I) assay for IC50 against Dd2 strain; assay type: cell-based; settings: Plasmodium falciparum, read-out: IC50-Dd2
Excerpt: as §1, §2, §3

[3] = system: 7G8 (CQ^R) P. falciparum strain; test: In vitro fluorescence (Sybr Green I) assay for IC50 against 7G8 strain; assay type: cell-based; settings: Plasmodium falciparum, read-out: IC50-7G8
Excerpt: as §1, §2, §3

P. falciparum strain D6 = settings: cited from earlier work; further: key: S = sensitive; R = resistant; S/R = intermediate level of resistance
P. falciparum strain Dd2 = settings: cited from earlier work; further: key: S = sensitive; R = resistant; S/R = intermediate level of resistance
P. falciparum strain W2 = settings: cited from earlier work; further: key: S = sensitive; R = resistant; S/R = intermediate level of resistance
[4] = system: P. falciparum strain FCR3; settings: cited from earlier work; further: key: S = sensitive; R = resistant; S/R = intermediate level of resistance
[5] = system: mitogen-induced marine spleen lymphocytes; assay type: cell-based; settings: LC50; mouse spleen lymphocytes, 72 hours incubation, then resazurin 24 hours
Procedure: Mouse spleen lymphocytes were isolated from C57B1/6J mice by teasing tissues on a metallic sieve screen. […] Two hundred (200) μl isolated cells were then seeded in separate wells of a 96-well flat-bottom tissue culture plate at a density of 2×10^5 cells per well. […] After 72 hours incubation in a humidified atmosphere at 37° C. and 5% CO2, a solution of resazurin PBS was added to a final concentration 10 μM, and the plates were returned to the incubator for another 24 hours. Resazurin is a substrate which changes color in response to metabolic activity (such as that found in living cells). […] LC50 values were determined from plots of florescence versus drug concentration using non-linear regression by Prism software.

[6] = system: P. falciparum strain TM91C235; settings: cited from earlier work; further: key: S = sensitive; R = resistant; S/R = intermediate level of resistance
[7] = Erythrocyte, D6 (CQ^S) strain in infected red blood cells, 72 hour incubation
[8] = Erythrocyte, Dd2 (CQ^R) strain in infected red blood cells, 72 hour incubation
[9] = Erythrocyte, 7G8 (CQ^R) strain in infected red blood cells, 72 hour incubation

SMILES | IC50 ([1]; D6, Erythrocyte, 72 h) | IC50 ([2]; DD2, Erythrocyte, 72 h) | IC50 [1, 7] | IC50 [2, 8] | IC50 [3, 9] | further results
Nc1ccc(N2CCN(CCCNc3ccnc4cc(Cl)ccc34)CC2)cc1 [N-(3-(4-(4-aminophenyl)piperazin-1-yl)propyl)-7-chloroquinolin-4-amine] | 1800 pM | 3160 pM | – | – | – | IC50 ([3]; 7G8, Erythrocyte, 72 h): 3200 pM
Clc1ccc2c(NCCCN3CCN(c4cccnc4)CC3)ccnc2c1 [7-chloro-N-(3-(4-(pyridin-3-yl)piperazin-1-yl)propyl)quinolin-4-amine] | – | – | 2070 pM | 1100 pM | 2900 pM | –
CC1(C)N=C(N)N=C(N)N1c1ccc(Cl)cc1 [Cycloguanil] | – | – | – | – | – | Drug susceptibility of P. falciparum strain D6 (P. falciparum strain D6): S; Drug susceptibility of P. falciparum strain Dd2 (P. falciparum strain Dd2): S; Drug susceptibility of P. falciparum strain W2 (P. falciparum strain W2): R; Drug susceptibility of P. falciparum strain FCR3 [4]: S
O=[N+]([O-])c1ccc(N2CCN(CCCNc3ccnc4cc(Cl)ccc34)CC2)c([N+](=O)[O-])c1 [7-chloro-N-(3-(4-(2,4-dinitrophenyl)piperazin-1-yl)propyl)quinolin-4-amine] | 300 pM | 470 pM | – | – | – | IC50 ([3]; 7G8, Erythrocyte, 72 h): 350 pM
O=[N+]([O-])c1cnc(N2CCN(CCCNc3ccnc4cc(Cl)ccc34)CC2)c([N+](=O)[O-])c1 [7-chloro-N-(3-(4-(3,5-dinitropyridin-2-yl)piperazin-1-yl)propyl)quinolin-4-amine] | – | – | 450 pM | 850 pM | 900 pM | –
Clc1ccc2c(NCCCN3CCN(c4cccc(-c5ccccc5)c4)CC3)ccnc2c1 [N-(3-(4-(biphenyl-3-yl)piperazin-1-yl)propyl)-7-chloroquinolin-4-amine] | 940 pM | 1800 pM | – | – | – | Cytotoxicity [5]: 2100 nM
Clc1ccc2c(NCCCN3CCN(c4ccccc4)CC3)ccnc2c1 [7-chloro-N-(3-(4-phenylpiperazin-1-yl)propyl)quinolin-4-amine] | < 2500 pM | < 2500 pM | – | – | – | Cytotoxicity [5]: 6400 nM
Clc1ccc2c(NCCN3CCN(c4ccccn4)CC3)ccnc2c1 [7-chloro-N-(2-(4-(pyridin-2-yl)piperazin-1-yl)ethyl)quinolin-4-amine] | – | – | 4570 pM | 3900 pM | 12200 pM | –
Fc1ccc(N2CCN(CCCNc3ccnc4cc(Cl)ccc34)CC2)cc1 [7-chloro-N-(3-(4-(4-fluorophenyl)piperazin-1-yl)propyl)quinolin-4-amine] | – | – | 140 pM | 800 pM | 300 pM | –
O=[N+]([O-])c1ccc(N2CCN(CCCNc3ccnc4cc(Cl)ccc34)CC2)nc1 [7-chloro-N-(3-(4-(5-nitropyridin-2-yl)piperazin-1-yl)propyl)quinolin-4-amine] | – | – | 260 pM | 480 pM | 450 pM | –
C=C[C@H]1C[N@@]2CC[C@H]1C[C@H]2[C@H](O)c1ccnc2ccc(OC)cc12 [Quinine] | – | – | – | – | – | Drug susceptibility of P. falciparum strain TM91C235 [6]: R; Drug susceptibility of P. falciparum strain D6 (P. falciparum strain D6): S; Drug susceptibility of P. falciparum strain Dd2 (P. falciparum strain Dd2): R; Drug susceptibility of P. falciparum strain W2 (P. falciparum strain W2): R; Drug susceptibility of P. falciparum strain FCR3 [4]: S
OC(c1cc(C(F)(F)F)nc2c(C(F)(F)F)cccc12)C1CCCCN1 (centres unmarked) [Mefloquine] | – | – | – | – | – | Drug susceptibility of P. falciparum strain TM91C235 [6]: R; Drug susceptibility of P. falciparum strain D6 (P. falciparum strain D6): S/R; Drug susceptibility of P. falciparum strain Dd2 (P. falciparum strain Dd2): R; Drug susceptibility of P. falciparum strain W2 (P. falciparum strain W2): S; Drug susceptibility of P. falciparum strain FCR3 [4]: S
FC(F)(F)c1ccc(N2CCN(CCCNc3ccnc4cc(Cl)ccc34)CC2)cc1 [7-chloro-N-(3-(4-(4-(trifluoromethyl)phenyl)piperazin-1-yl)propyl)quinolin-4-amine] | – | – | 5 pM | 170 pM | 200 pM | –
Clc1ccc2c(NCCCN3CCN(c4ccccc4-c4ccccc4)CC3)ccnc2c1 [N-(3-(4-(biphenyl-2-yl)piperazin-1-yl)propyl)-7-chloroquinolin-4-amine] | 1200 pM | 2600 pM | – | – | – | Cytotoxicity [5]: 1700 nM
Clc1ccc2c(NCCCN3CCN(c4ccc(-c5ccccc5)cc4)CC3)ccnc2c1 [N-(3-(4-(biphenyl-4-yl)piperazin-1-yl)propyl)-7-chloroquinolin-4-amine] | 100 pM | 360 pM | – | – | – | Cytotoxicity [5]: 2200 nM; IC50 ([3]; 7G8, Erythrocyte, 72 h): 130 pM
O=[N+]([O-])c1ccc(N2CCN(CCCNc3ccnc4cc(Cl)ccc34)CC2)cc1 [7-chloro-N-(3-(4-(4-nitrophenyl)piperazin-1-yl)propyl)quinolin-4-amine] | 800 pM | 1140 pM | – | – | – | IC50 ([3]; 7G8, Erythrocyte, 72 h): 400 pM
COc1ncnc(NS(=O)(=O)c2ccc(N)cc2)c1OC [Sulfadoxine] | – | – | – | – | – | Drug susceptibility of P. falciparum strain TM91C235 [6]: R; Drug susceptibility of P. falciparum strain D6 (P. falciparum strain D6): S; Drug susceptibility of P. falciparum strain Dd2 (P. falciparum strain Dd2): S; Drug susceptibility of P. falciparum strain W2 (P. falciparum strain W2): R; Drug susceptibility of P. falciparum strain FCR3 [4]: S
Clc1ccc(N2CCN(CCCNc3ccnc4cc(Cl)ccc34)CC2)cc1 [7-chloro-N-(3-(4-(4-chlorophenyl)piperazin-1-yl)propyl)quinolin-4-amine] | 5 pM | 330 pM | – | – | – | IC50 ([3]; 7G8, Erythrocyte, 72 h): 90 pM
Cc1ccc(N2CCN(CCCNc3ccnc4cc(Cl)ccc34)CC2)cc1 [7-chloro-N-(3-(4-p-tolylpiperazin-1-yl)propyl)quinolin-4-amine] | – | – | 110 pM | 860 pM | 300 pM | –
FC(F)(F)c1ccc(N2CCN(CCCNc3ccnc4cc(Cl)ccc34)CC2)nc1 [7-chloro-N-(3-(4-(5-(trifluoromethyl)pyridin-2-yl)piperazin-1-yl)propyl)quinolin-4-amine] | – | – | 500 pM | 830 pM | 1000 pM | –
Clc1ccc2c(NCCCN3CCN(c4ccncc4)CC3)ccnc2c1 [7-chloro-N-(3-(4-(pyridin-4-yl)piperazin-1-yl)propyl)quinolin-4-amine] | – | – | 2070 pM | 2000 pM | 6800 pM | –
Clc1ccc2c(NCCCN3CCN(c4ccc(Cl)c(Cl)c4)CC3)ccnc2c1 [7-chloro-N-(3-(4-(3,4-dichlorophenyl)piperazin-1-yl)propyl)quinolin-4-amine] | 100 pM | 900 pM | – | – | – | IC50 ([3]; 7G8, Erythrocyte, 72 h): 280 pM
COc1ccc(N2CCN(CCCNc3ccnc4cc(Cl)ccc34)CC2)cc1 [7-chloro-N-(3-(4-(4-methoxyphenyl)piperazin-1-yl)propyl)quinolin-4-amine] | – | – | 100 pM | 480 pM | 300 pM | –
Clc1ccc2c(NCCCN3CCN(c4ncccn4)CC3)ccnc2c1 [7-chloro-N-(3-(4-(pyrimidin-2-yl)piperazin-1-yl)propyl)quinolin-4-amine] | – | – | 1300 pM | 1000 pM | 3300 pM | –
